Here are results for two compounds from US8288433B2, “Diazeniumdiolate compounds, a process for their preparation and pharmaceutical compositions containing them” (Les Laboratoires Servier, priority 2007, dated 2012).

Usually IC50 stands for the concentration that inhibits the measured activity by half.

Assay [1] deals with Aorta rings without endothelium. The assay is described as follows: NO-donor activity in vitro, relaxation of noradrenaline-contracted aorta rings. As to conditions: aorta rings without endothelium contracted by noradrenaline (0.1-0.3 μM); read-out: IC50 (relaxant effect). The procedure: Aorta rings without endothelium are used. After a first contraction induced by 60 mM KCl to characterise the sensitivity of the ring, and washing, a stable contraction is induced by noradrenaline (0.1-0.3 μM) in the presence or absence of ODQ. A cumulative concentration series is applied and the activity of the product under test is calculated by an IC50 (dose that inhibits the maximum effect by 50%).

For assay [2], the system named is SD rats anaesthetised with pentobarbital. The assay is described as follows: NO-donor activity in vivo, reduction of arterial pressure in anaesthetised rats. The conditions noted are these: i.v. dose of 100 μg/kg. Here is the method: The NO-donor effect of the compound is evaluated by the reduction in pressure caused in SD rats anaesthetised with pentobarbital. After stabilisation of the arterial pressure, the product under test is administered i.v. in increasing doses.

The next assay relates to conscious Wistar rats. The assay is described as follows: Diuretic effect in vivo, urine volume in conscious rats. The conditions noted are these: oral dose of 10 mg/kg, urine volume after 6 hours, relative to control group. Here is the method:
The diuretic effect is tested on conscious Wistar rats. The animals are subjected to fasting for 18 h before the experiment and put on a diet of water 90 minutes before the experiment. The product under test is then administered orally by force-feeding, the rat is placed in a metabolism cage and the volume of urine is measured after 6 hours. The volume is expressed in relation to the volume measured in a control group of rats.

Molecules are shown by their SMILES.

Regarding `CCN(CC)/[N+]([O-])=N/OCOC(=O)c1cccc(CNS(=O)(=O)c2cc(C(=O)NN3c4ccc([N+](=O)[O-])cc4CC3C)ccc2Cl)c1` (stereo not drawn) [Example 1], in assay [1], the IC50 turned out to be 120 nM. Also, the “reduction of the arterial pressure” value in assay [2] is listed as 56%. In the assay on conscious Wistar rats, the “increase of the excretion of urine” value came out at 108%.

On to `CCN(CC)/[N+]([O-])=N/OCOC(=O)c1ccc(CNS(=O)(=O)c2cc(C(=O)NN3c4ccccc4C[C@H]3C)ccc2Cl)cc1` [Example 10, ({[(1Z)-2,2-diethyl-1-oxidohydrazono]amino}oxy)methyl 4-({[(2-chloro-5-{[(2R)-2-methyl-2,3-dihydro-1H-indol-1-yl]carbamoyl}phenyl)-sulphonyl]amino}methyl)benzoate], for which the IC50 in assay [1] worked out at 40 nM. Besides, the “reduction of the arterial pressure” value in assay [2] is 55%. In the assay with conscious Wistar rats, the “increase of the excretion of urine” value was 248%.
